Results taken from patent US20150259371A1, “METHODS AND COMPOUNDS FOR INHIBITING GLYCOSYLTRANSFERASES” (SIMON FRASER UNIVERSITY, priority 2010, published 2015).

How the values were obtained:
[1] = test system: N-glycosylation in COS-7 cells; test: Lectin blots of glycans in treated COS-7 cells; type: cell-based, African green monkey; conditions: COS-7, 0-1000 μM, 24 h
Protocol: Westernlectin blots: Samples were run on 10% SDS polyacrylamide gels and transferred onto nitrocellulose membranes (Biorad). Membranes were blocked for 1 h in PBS containing 0.1% Tween-20 (PBS-T) containing 1% (unless otherwise stated) bovine serum albumin (BSA), and probed with the appropriate primary antibody or lectin in 1% BSA in PBS-T overnight at 4° C. Blots were washed for 1 hr with PBS-T, and blocked for a further 30 min with 1% BSA in PBS-T at room temperature. They were then probed with the appropriate horseradish peroxidise (HRP)-conjugated secondary antibodyprobe in 1% BSA in PBS-T at room temperature for 1 h, followed by washing in PBS-T for 1 h. […]
Antibodieslectins: O-GlcNAc levels were assessed primarily using CTD110.6 (Covance), but RL2 (Abcam) and HGAC85 (Abcam) were also tested. […] OGA levels were assessed using a polyclonal anti-OGA antibody which was a kind gift from Dr. Gerald Hart and OGT levels using H-300 (Santa Cruz Biotechnology). nup62 was probed using mAb 414 (Covance). […]
To assess whether cell surface glycosylation could be affected through changes in UDP-GlcNAc availability or inhibition of GlcNAc transferases within the secretory pathway, we treated COS-7 cells with a range of Ac-5SGlcNAc concentrations and evaluated the effect on various glycans using lectin blots. […]

[2] = test system: N-glycosylation of IgG from mouse hybridoma cell line; test: Lectin blots of IgG immunoprecipitated from treated mouse hybridoma cells; type: cell-based; conditions: 0-1000 μM, 24 h
[3] = test system: transcription factor Sp1; test: Western blot of Sp1 levels in CHO cells; type: cell-based, Chinese hamster; conditions: 50 μM, 4 days
Protocol: (A) Cell proliferation curves over the course of 5 days for CHO cells following no (circles), 50 μM Ac-GlcNAc (squares) or 50 μM Ac-5SGlcNAc (triangles) treatment. The error bars indicate the deviation from the mean for triplicate measurements. […] Upper panel, probed with anti-O-GlcNAc antibody (CTD110.6); lower panel, probed with anti-actin antibody. (B) Cell proliferation curves over the course of 5 days for EMEG heterozygous mouse embryonic fibroblast cells following no (circles), 50 μM Ac-GlcNAc (squares) or 50 μM Ac-5SGlcNAc (triangles) treatment. The error bars indicate the deviation from the mean for triplicate measurements. […] Upper panel, probed with anti-O-GlcNAc antibody (CTD110.6); lower panel, probed with anti-actin antibody. (C) Western blots of CHO cell lysates following no (C) or Ac-5SGlcNAc administration at 50 μM for 4 days. Probed with (from top to bottom) anti-Spl antibody, anti O-GlcNAc (CTD110.6) antibody and anti-actin antibody. Full blot of the anti-Sp 1 is shown in panel (d). […]
(§1) Cellular responses to Ac-5SGlcNAc (9) treatment and consequent decreases in O-GlcNAc levels were evaluated. […] We quantitatively evaluated cell proliferation and established growth curves over the course of 5 days in both CHO and EMEG32 heterozygous mouse embryonic fibroblast cells treated with 50 μM Ac-5SGlcNAc (9), 50 μM Ac-GlcNAc (G), or vehicle (FIGS. 5A-B).

[4] = test system: O-GlcNAc levels in mice tissues; test: O-GlcNAc levels in mouse tissues after intraperitoneal dosing; type: in vivo; conditions: 300 mg/kg intraperitoneally, 16 hours
Protocol: Ac-5SGlcNAc 9 and the deprotected analogue with the hexyl substituent at the C2 position 28 have been analyzed for effectiveness at decreasing O-GlcNAc levels in mice. Pilot studies were conducted with mice dosed in triplicate with either compound or vehicle alone. Compounds were dosed at 300 mg/kg intraperitoneally using 75% DMSO as vehicle for delivery of 9 and phosphate-buffered saline (PBS) for delivery of 28. Mice were euthanized using a CO2 chamber after 16 hours exposure to either compound, and tissues (liver, lung, heart, kidney, spleen, pancreas, brain, blood, fat and muscle) harvested and flash frozen in liquid nitrogen. Frozen tissues were ground using a pestle and mortar, and resuspended in cell lysis buffer (50 mM NaH2PO4, 150 mM NaCl, 0.1% SDS, 1% NP-40, 0.25% sodium deoxycholate, 1 mM EDTA, 30 mM sodium fluoride, 30 mM β-glycerophosphate, 5 mM sodium pyrophosphate, 1 mM Thiamet-G, protease inhibitor cocktail (Roche)) at a concentration of 100 mg tissue1 mL buffer prior to homogenization. Homogenates were centrifuged at 13,000 rpm for 20 min, the supernatant removed, added to 2×SDS-PAGE loading buffer and boiled for […]. SDS-PAGE and western blots were performed using standard procedures. Blots were probed using anti-O-GlcNAc antibody (CTD110.6, Santa Cruz Biotechnology) and anti-actin antibody for a loading control.

[5] = test system: cell lines examined; test: Qualitative observation of cell morphology and proliferation in treated cell lines; type: cell-based; conditions: at the doses assayed
Protocol: Despite OGA levels continuing to drop and OGT levels rising over 5 days of dosing, O-GlcNAc levels remained low and unchanged after 24 hours (FIG. 2C).
as §1

CC(=O)NC1C(OC(C)=O)SC(COC(C)=O)C(OC(C)=O)C1OC(C)=O [Compound 9, N-Acetyl-1,3,4,6-tetra-O-acetyl-α-D-5-thio-glucosamine]
glycosylation by lectin blots (ConA, GNA, PHA-L, SNA, MAA) [1]: All lectins tested showed no change in glycosylation
GNA and ConA reactivity of hybridoma IgG [2]: slight decrease in GNA and ConA reactivity when using a very high dose
Sp1 levels [3]: decreases were observed in the levels of transcription factor Sp1
O-GlcNAc levels in tissues [4]: effective at decreasing O-GlcNAc levels during the 16 hour dosing period in the liver, lung, heart, kidney, spleen, pancreas, fat and muscle
changes in cell morphology or rate of proliferation [5]: no apparent changes in cell morphology or rate of proliferation
